The test system of series [1] is K562 CRISPRi cells. Nature of the series: Perturb-seq pooled growth measurement (sgRNA counts, growth phenotype γ, relative activity). Conditions: for gamma_day5 / gamma_day10: pooled growth phenotype γ of the Perturb-seq sgRNA; for gamma_day5: day 5, K562 CRISPRi cells; for gamma_day10: day 10, K562 CRISPRi cells; for relative_activity_day5: γ relative to perfectly matched sgRNA (_00) of the same gene, day 5. Format: cell-based, human. Put shortly: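 sgRNA abundance was sequenced from genomic DNA of the same transduced population sampled on days two, seven and twelve. Phenotype γ compares normalized day seven and twelve counts with day two. Day-seven values (five days of growth) define relative sgRNA activity.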

Series [2] relates to K562 CRISPRi cells. Described as above. Format: cell-based, human. Conditions: γ relative to perfectly matched sgRNA (_00) of the same gene, day 10.

In the case of “DUT_ + _48624411.23-P1P2_00 (guide GCGAGCGAGGAGACCACCGG; listed as DNA, chemistry not fully specified)”, in series [1], the gamma_day5 is recorded as −0.7929, the gamma_day10 was −0.6457 and the relative_activity_day5 is listed as 1. For the same substance, in series [2], the relative_activity_day10 amounted to 1.
For the substance “DUT_ + _48624411.23-P1P2_01 (guide GCCAGCGAGGAGACCACCGG; listed as DNA, chemistry not fully specified)”, in series [1], the gamma_day5 was −0.7924, the gamma_day10 was −0.6032 and the relative_activity_day5 is reported as 0.9993. In series [2], this substance displayed a relative_activity_day10 of 0.9341.
“DUT_ + _48624411.23-P1P2_07 (guide GCGAGCGAGGAGCCCACCGG; listed as DNA, chemistry not fully specified)”: in series [1], the gamma_day5 is recorded as −0.7197, the gamma_day10 is −0.4998 and the relative_activity_day5 came to 0.9077. The relative_activity_day10 in series [2] is recorded as 0.774.
As for “DUT_ + _48624411.23-P1P2_08 (guide GCGAGCGAGGAGGCCACCGG; listed as DNA, chemistry not fully specified)”, in series [1], the gamma_day5 is reported as −0.7725, the gamma_day10 is on record as −0.5862 and the relative_activity_day5 is recorded as 0.9742. In series [2], this substance had a relative_activity_day10 of 0.9077.
Regarding “DUT_ + _48624411.23-P1P2_10 (guide GCGAGCGAGGAGACCAACGG; listed as DNA, chemistry not fully specified)”, in series [1], the gamma_day5 was −0.3864, the gamma_day10 is on record as −0.3196 and the relative_activity_day5 is on record as 0.4873. In series [2], this substance displayed a relative_activity_day10 of 0.4949.
The corresponding values for “EIF2S1_ −_67827080.23-P1P2_00 (guide GAGCGAAGCGCACGCTGAGG; listed as DNA, chemistry not fully specified)” are −0.9047, −0.5155, 1 and 1.
“EIF2S1_ −_67827080.23-P1P2_01 (guide GAGCGAAACGCACGCTGAGG; listed as DNA, chemistry not fully specified)”: in series [1], the gamma_day5 is recorded as −0.4467, the gamma_day10 was −0.3032 and the relative_activity_day5 was 0.4937. The same substance displayed a relative_activity_day10 in series [2] of 0.5881.
Consider “EIF2S1_ −_67827080.23-P1P2_02 (guide GAGCGCAGCGCACGCTGAGG; listed as DNA, chemistry not fully specified)”, for which, in series [1], the gamma_day5 was −0.7288, the gamma_day10 is given as −0.4556 and the relative_activity_day5 stood at 0.8055. The substance further showed a relative_activity_day10 in series [2] of 0.8838.
For the substance “EIF2S1_ −_67827080.23-P1P2_06 (guide GAGCGAAGCGCGCGCTGAGG; listed as DNA, chemistry not fully specified)”, in series [1], the gamma_day5 is given as −0.6688, the gamma_day10 is −0.3635 and the relative_activity_day5 was 0.7393. For the same substance, in series [2], the relative_activity_day10 stood at 0.7051.
In the case of “EIF2S1_ −_67827080.23-P1P2_07 (guide GAGCGAAGCGCTCGCTGAGG; listed as DNA, chemistry not fully specified)”, in series [1], the gamma_day5 is −0.08307, the gamma_day10 is −0.04004 and the relative_activity_day5 turned out to be 0.09182. In addition, the relative_activity_day10 in series [2] is given as 0.07767.
Consider “GATA1 −_48645022.23-P1P2_12 (guide GTGAGCTTGCCACATCCGCA; listed as DNA, chemistry not fully specified)”, for which, in series [1], the gamma_day5 is given as −0.1084, the gamma_day10 is given as −0.06327 and the relative_activity_day5 was 0.1126. The same substance returned a relative_activity_day10 in series [2] of 0.1028.
With “GATA1_ −_48645022.23-P1P2_00 (guide GTGAGCTTGCCACATCCCCA; listed as DNA, chemistry not fully specified)”, in series [1], the gamma_day5 is recorded as −0.9627, the gamma_day10 is −0.6153 and the relative_activity_day5 is recorded as 1. In addition, the relative_activity_day10 in series [2] came to 1.
For the substance “GATA1_ −_48645022.23-P1P2_03 (guide GTGCGCTTGCCACATCCCCA; listed as DNA, chemistry not fully specified)”, in series [1], the gamma_day5 is given as −0.9855, the gamma_day10 was −0.6259 and the relative_activity_day5 amounted to 1.024. Also, the relative_activity_day10 in series [2] amounted to 1.017.
For “GATA1_ −_48645022.23-P1P2_04 (guide GTGAGCTTACCACATCCCCA; listed as DNA, chemistry not fully specified)”, in series [1], the gamma_day5 is reported as −0.9313, the gamma_day10 is given as −0.6032 and the relative_activity_day5 turned out to be 0.9673. In series [2], the relative_activity_day10 worked out at 0.9804.
Regarding “GATA1_ −_48645022.23-P1P2_06 (guide GTGAGCTTGCGACATCCCCA; listed as DNA, chemistry not fully specified)”, in series [1], the gamma_day5 is recorded as −0.5073, the gamma_day10 is −0.3486 and the relative_activity_day5 was found to be 0.5269. This substance displayed a relative_activity_day10 in series [2] of 0.5666.
In the case of “GATA1_ −_48645022.23-P1P2_08 (guide GTGAGCTTTCCACATCCCCA; listed as DNA, chemistry not fully specified)”, in series [1], the gamma_day5 is on record as −0.7632, the gamma_day10 was −0.4893 and the relative_activity_day5 was determined as 0.7928. Further, in series [2], the relative_activity_day10 amounted to 0.7953.
With “GINS1_ −_25388381.23-P1P2_00 (guide GGACTAGAACGAAAGGAGTG; listed as DNA, chemistry not fully specified)”, in series [1], the gamma_day5 is on record as −0.9993, the gamma_day10 is on record as −0.7125 and the relative_activity_day5 was found to be 1. In addition, the relative_activity_day10 in series [2] came out at 1.
Take “GINS1_ −_25388381.23-P1P2_03 (guide GGACTATAACGAAAGGAGTG; listed as DNA, chemistry not fully specified)”: in series [1], the gamma_day5 is given as −0.7467, the gamma_day10 was −0.4797 and the relative_activity_day5 is reported as 0.7472. The relative_activity_day10 in series [2] amounted to 0.6733.
Regarding “GINS1_ −_25388381.23-P1P2_06 (guide GGACTAGAACGGAAGGAGTG; listed as DNA, chemistry not fully specified)”, in series [1], the gamma_day5 was −0.9794, the gamma_day10 is reported as −0.6548 and the relative_activity_day5 was 0.9801. Also, in series [2], the relative_activity_day10 is listed as 0.9191.
Turning to “GINS1_ −_25388381.23-P1P2_08 (guide GGACTAGAGCGAAAGGAGTG; listed as DNA, chemistry not fully specified)”, in series [1], the gamma_day5 is recorded as −1.039, the gamma_day10 is given as −0.6723 and the relative_activity_day5 is 1.039. The relative_activity_day10 in series [2] is 0.9436.
For “GINS1_ −_25388381.23-P1P2_14 (guide GGACTAGAACGAAAGGAGCG; listed as DNA, chemistry not fully specified)”, in series [1], the gamma_day5 is −0.3535, the gamma_day10 is −0.2609 and the relative_activity_day5 came to 0.3537. In addition, the relative_activity_day10 in series [2] is 0.3662.

Source of the values: patent publication US20220259593A1, “CONTROL OF MAMMALIAN GENE DOSAGE USING CRISPR” (The Regents of the University of California, priority 2019, published 2022).
